Experimental data taken from US20250215030A1, “STAT MODULATORS AND USES THEREOF” (Recludix Pharma, Inc., priority 2022, published 2025).

Experiments:
[1] = molecular target: T1, Recombinant STAT6 protein (STAT6(W123-T658)) (Homo sapiens, UniProt P42226); experiment: STAT6 Fluorescence Polarization (FP) Assay; type: binding; conditions: STAT6(W123-T658) 250 nM, probe 5-FAM-ApYKPFQDLI-NH2 2 nM, 45-minute incubation
T1 construct: STAT6(W123-T658)
T1 sequence (P42226 123-658): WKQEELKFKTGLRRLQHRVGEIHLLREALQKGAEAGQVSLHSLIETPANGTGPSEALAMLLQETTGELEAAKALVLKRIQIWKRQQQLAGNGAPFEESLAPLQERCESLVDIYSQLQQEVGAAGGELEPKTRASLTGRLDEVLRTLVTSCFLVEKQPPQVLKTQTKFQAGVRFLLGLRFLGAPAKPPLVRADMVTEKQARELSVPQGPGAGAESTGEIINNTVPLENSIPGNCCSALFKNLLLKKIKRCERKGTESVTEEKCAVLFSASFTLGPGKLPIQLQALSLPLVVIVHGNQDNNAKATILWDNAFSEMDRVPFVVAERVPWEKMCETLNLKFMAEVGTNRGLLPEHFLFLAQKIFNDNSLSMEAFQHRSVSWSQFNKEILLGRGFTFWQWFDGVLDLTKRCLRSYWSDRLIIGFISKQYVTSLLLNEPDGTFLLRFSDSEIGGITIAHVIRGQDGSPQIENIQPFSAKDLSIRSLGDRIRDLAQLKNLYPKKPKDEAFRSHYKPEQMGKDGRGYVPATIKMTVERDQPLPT
Experimental: STAT6 Fluorescence Polarization (FP) Assay
An FP assay was developed to determine IC50 values for test substances. Recombinant STAT6 protein (STAT6(W123-T658)) at 250 nM was combined with a fluorescently labeled, phosphotyrosine peptide probe (5-FAM-ApYKPFQDLI-NH2) at 2 nM in FP buffer (10 mM HEPES pH 7.4, 50 mM NaCl, 1 mM EDTA, 0.05% Tween 20, 2 mM DTT). 50 μL of STAT6-probe mixture was added to serial diluted compounds in black, 96-well plates (Greiner BioOne 655076) to a final concentration of 1% DMSO. Reaction components were mixed, and FP was measured after 45-minute incubation at room temperature using a Tecan Spark multimode plate reader. FP signal (mP) was plotted against the log concentration of the test substances and IC50 values were calculated by nonlinear regression analysis using GraphPad Prism software. For STAT6 FP assay, A=≤300 nM; B=>300-3000 nM; C=>3-30 μM; and D=>30 μM.

[2] = molecular target: T2, Recombinant STAT3 protein (STAT3(G127-I722)) (Homo sapiens, UniProt P40763); experiment: STAT3 Fluorescence Polarization (FP) Assay; type: binding; conditions: STAT3(G127-I722) 25 nM, probe 5-FAM-GpYLPQTV-NH2 2 nM, 45-minute incubation
T2 construct: STAT3(G127-I722)
Experimental: STAT3 Fluorescence Polarization (FP) Assay
An FP assay was developed to determine IC50 values for test substances. Recombinant STAT3 protein (STAT3(G127-I722)) at 25 nM was combined with a fluorescently labeled, phosphotyrosine peptide probe (5-FAM-GpYLPQTV-NH2) at 2 nM in FP buffer (10 mM HEPES pH 7.4, 50 mM NaCl, 1 mM EDTA, 0.05% Tween 20, 2 mM DTT). 50 μL of STAT3-probe mixture was added to serial diluted compounds in black, 96-well plates (Greiner BioOne 655076) to a final concentration of 1% DMSO. Reaction components were mixed, and FP was measured after 45-minute incubation at room temperature using a Tecan Spark multimode plate reader. FP signal (mP) was plotted against the log concentration of the test substances and IC50 values were calculated by nonlinear regression analysis using GraphPad Prism software. For STAT3 FP assay, A=≤100 nM; B=>100-1000 nM; C=>1-10 μM; and D=>10 μM.

T2 sequence (P40763 127-722, species assumed): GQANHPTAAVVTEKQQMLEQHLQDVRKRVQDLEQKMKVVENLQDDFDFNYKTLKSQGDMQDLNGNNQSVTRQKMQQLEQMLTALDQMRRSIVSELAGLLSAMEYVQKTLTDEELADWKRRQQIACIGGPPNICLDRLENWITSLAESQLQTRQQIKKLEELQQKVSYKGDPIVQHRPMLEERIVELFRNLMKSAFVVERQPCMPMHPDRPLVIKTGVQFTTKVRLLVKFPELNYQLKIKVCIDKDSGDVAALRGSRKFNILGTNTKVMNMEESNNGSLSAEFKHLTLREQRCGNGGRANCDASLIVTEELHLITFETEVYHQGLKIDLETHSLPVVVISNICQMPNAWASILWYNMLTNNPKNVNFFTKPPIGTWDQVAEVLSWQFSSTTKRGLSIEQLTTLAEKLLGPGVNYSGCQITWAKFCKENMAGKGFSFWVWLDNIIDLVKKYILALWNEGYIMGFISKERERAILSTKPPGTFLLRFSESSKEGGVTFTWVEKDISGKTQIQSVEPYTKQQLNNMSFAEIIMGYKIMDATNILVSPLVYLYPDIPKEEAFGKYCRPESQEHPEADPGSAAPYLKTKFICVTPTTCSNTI

Row | IC50 [1] [nM] | IC50 [2] [nM] | SMILES
1 | 3000 to 30000 | 100 to 1000 | O=C(N[C@H]1C[C@@H]2C[C@@H]2C[C@H]2CC[C@@H](C(=O)N[C@@H]3CCN(C4COC4)C3)N2C1=O)c1cc2cc(C(F)(F)P(=O)(O)O)ccc2s1 [Compound 48, (difluoro(2-(((3S,6S,7aS,8aR,9aR)-3-(((R)-1-(oxetan-3-yl)pyrrolidin-3-yl)carbamoyl)-5-oxodecahydro-1H-cyclopropa[d]pyrrolo[1,2-a]azocin-6-yl)carbamoyl)benzo[b]thiophen-5-yl)methyl)phosphonic acid]
2 | 3000 to 30000 | < 100 | CS(=N)(=O)CC1CN(C(=O)[C@@H]2CC[C@@H]3C[C@H]4C[C@H]4C[C@H](NC(=O)c4cc5cc(C(F)P(=O)(O)O)ccc5s4)C(=O)N32)C1 (stereo partly drawn) [Example 341, (fluoro(2-(((3S,6S,7aS,8aR,9aR)-3-(3-((S-methylsulfonimidoyl)methyl)azetidine-1-carbonyl)-5-oxodecahydro-1H-cyclopropa[d]pyrrolo[1,2-a]azocin-6-yl)carbamoyl)benzo[b]thiophen-5-yl)methyl)phosphonic acid]
3 | 3000 to 30000 | 100 to 1000 | O=C(N[C@H]1C[C@@H]2C[C@@H]2C[C@H]2CC[C@@H](C(=O)N3CC(N4CCOCC4)C3)N2C1=O)c1cc2cc(C(F)(F)P(=O)(O)O)ccc2s1 [Compound 91, (difluoro(2-(((3S,6S,7aS,8aR,9aR)-3-(3-morpholinoazetidine-1-carbonyl)-5-oxodecahydro-1H-cyclopropa[d]pyrrolo[1,2-a]azocin-6-yl)carbamoyl)benzo[b]thiophen-5-yl)methyl)phosphonic acid]
4 | 300 to 3000 | < 100 | NC(=O)N1C[C@H](NC(=O)[C@@H]2CC[C@@H]3C[C@H]4C[C@H]4C[C@H](NC(=O)c4cc5cc(C(F)P(=O)(O)O)ccc5s4)C(=O)N32)[C@@H](F)C1 (stereo partly drawn) [Example 330, ((2-(((3S,6S,7aS,8aR,9aR)-3-(((3S,4S)-1-carbamoyl-4-fluoropyrrolidin-3-yl)carbamoyl)-5-oxodecahydro-1H-cyclopropa[d]pyrrolo[1,2-a]azocin-6-yl)carbamoyl)benzo[b]thiophen-5-yl)fluoromethyl)phosphonic acid]

The remaining lines, values behind:

Row | SMILES | IC50 [1] [nM] | IC50 [2] [nM]
5 | CO[C@@H]1CCN(C(=O)C2CN(C(=O)[C@@H]3CC[C@@H]4C[C@H]5C[C@H]5C[C@H](NC(=O)c5cc6cc(C(F)(F)P(=O)(O)O)ccc6s5)C(=O)N43)C2)C1 [Compound 114, (difluoro(2-(((3S,6S,7aS,8aR,9aR)-3-(3-((R)-3-methoxypyrrolidine-1-carbonyl)azetidine-1-carbonyl)-5-oxodecahydro-1H-cyclopropa[d]pyrrolo[1,2-a]azocin-6-yl)carbamoyl)benzo[b]thiophen-5-yl)methyl)phosphonic acid] | 3000 to 30000 | < 100
6 | N#C[C@@H]1CN(C(=O)[C@@H]2CC[C@@H]3[C@H]4C[C@H]4C[C@H](NC(=O)c4cc5cc(C(F)(F)P(=O)(O)O)ccc5s4)C(=O)N32)C[C@H]1c1ccccc1 (single isomer, unassigned) [Compound 66, ((2-(((3S,6S,7aS,8aS,8bR)-3-((3S,4R or 3R,4S)-3-cyano-4-phenylpyrrolidine-1-carbonyl)-5-oxodecahydrocyclopropa[c]pyrrolo[1,2-a]azepin-6-yl)carbamoyl)benzo[b]thiophen-5-yl)difluoromethyl)phosphonic acid] | ≤ 300 | 1000 to 10000
7 | O=C(N[C@H]1C[C@@H]2C[C@@H]2C[C@H]2CC[C@@H](C(=O)N3CC(c4ncco4)C3)N2C1=O)c1cc2cc(C(F)(F)P(=O)(O)O)ccc2s1 [Example 300, (difluoro(2-(((3S,6S,7aS,8aR,9aR)-3-(3-(oxazol-2-yl)azetidine-1-carbonyl)-5-oxodecahydro-1H-cyclopropa[d]pyrrolo[1,2-a]azocin-6-yl)carbamoyl)benzo[b]thiophen-5-yl)methyl)phosphonic acid] | 300 to 3000 | < 100
8 | O=C(N[C@H]1C[C@H]2C[C@H]2C[C@H]2CC[C@@H](C(=O)N[C@H]3CN(c4cccnc4)C[C@@H]3F)N2C1=O)c1cc2cc(C(F)(F)P(=O)(O)O)ccc2s1 [Compound 128, (difluoro(2-(((3S,6S,7aR,8aS,9aR)-3-(((3S,4S)-4-fluoro-1-(pyridin-3-yl)pyrrolidin-3-yl)carbamoyl)-5-oxodecahydro-1H-cyclopropa[d]pyrrolo[1,2-a]azocin-6-yl)carbamoyl)benzo[b]thiophen-5-yl)methyl)phosphonic acid] | 300 to 3000 | < 100
9 | O=C(N[C@H]1C[C@H]2C[C@H]2C[C@H]2CC[C@@H](C(=O)NCC(CO)c3cccnc3)N2C1=O)c1cc2cc(C(F)(F)P(=O)(O)O)ccc2s1 (stereo partly drawn) [Compound 123, (difluoro(2-(((3S,6S,7aR,8aS,9aR)-3-((3-hydroxy-2-(pyridin-3-yl)propyl)carbamoyl)-5-oxodecahydro-1H-cyclopropa[d]pyrrolo[1,2-a]azocin-6-yl)carbamoyl)benzo[b]thiophen-5-yl)methyl)phosphonic acid] | 3000 to 30000 | 100 to 1000
10 | O=C(N[C@H]1C[C@@H]2C[C@@H]2C[C@H]2CC[C@@H](C(=O)N3CCCOc4ccccc43)N2C1=O)c1cc2cc(C(F)P(=O)(O)O)ccc2s1 (stereo partly drawn) [Example 373, (fluoro(2-(((3S,6S,7aS,8aR,9aR)-5-oxo-3-(2,3,4,5-tetrahydrobenzo[b][1,4]oxazepine-5-carbonyl)decahydro-1H-cyclopropa[d]pyrrolo[1,2-a]azocin-6-yl)carbamoyl)benzo[b]thiophen-5-yl)methyl)phosphonic acid] | 3000 to 30000 | 1000 to 10000
11 | Cc1ccncc1C1CN(C(=O)[C@@H]2CC[C@@H]3C[C@H]4C[C@H]4C[C@H](NC(=O)c4cc5cc(CP(=O)(O)O)ccc5s4)C(=O)N32)C1 [Example 277, ((2-(((3S,6S,7aS,8aR,9aR)-3-(3-(4-methylpyridin-3-yl)azetidine-1-carbonyl)-5-oxodecahydro-1H-cyclopropa[d]pyrrolo[1,2-a]azocin-6-yl)carbamoyl)benzo[b]thiophen-5-yl)methyl)phosphonic acid] | > 30000 | 100 to 1000
12 | N#C[C@@H]1CN(C(=O)[C@@H]2CC[C@@H]3C[C@H]4C[C@H]4C[C@H](NC(=O)c4cc5cc(C(F)(F)P(=O)(O)O)ccc5s4)C(=O)N32)C[C@H]1c1ccccc1 (relative stereo) [Compound 10, ((2-(((3S,6S,7aS,8aR,9aR)-3-((rel-trans)-3-cyano-4-phenylpyrrolidine-1-carbonyl)-5-oxodecahydro-1H-cyclopropa[d]pyrrolo[1,2-a]azocin-6-yl)carbamoyl)benzo[b]thiophen-5-yl)difluoromethyl)phosphonic acid] | ≤ 300 | 100 to 1000
13 | O=C(N[C@H]1C[C@@H]2C[C@@H]2C[C@H]2CC[C@@H](C(=O)N3CC(c4ccon4)C3)N2C1=O)c1cc2cc(C(F)(F)P(=O)(O)O)ccc2s1 [Example 299, (difluoro(2-(((3S,6S,7aS,8aR,9aR)-3-(3-(isoxazol-3-yl)azetidine-1-carbonyl)-5-oxodecahydro-1H-cyclopropa[d]pyrrolo[1,2-a]azocin-6-yl)carbamoyl)benzo[b]thiophen-5-yl)methyl)phosphonic acid] | 300 to 3000 | < 100
14 | O=C(N[C@H]1C[C@@H]2C[C@@H]2C[C@H]2CC[C@@H](C(=O)N3CC(c4nocc4Br)C3)N2C1=O)c1cc2cc(C(F)P(=O)(O)O)ccc2s1 (stereo partly drawn) [Example 400, ((2-(((3S,6S,7aS,8aR,9aR)-3-(3-(4-bromoisoxazol-3-yl)azetidine-1-carbonyl)-5-oxodecahydro-1H-cyclopropa[d]pyrrolo[1,2-a]azocin-6-yl)carbamoyl)benzo[b]thiophen-5-yl)fluoromethyl)phosphonic acid] | 3000 to 30000 | 100 to 1000
